Patent publication US10407409B2, “6-(5-hydroxy-1H-pyrazol-1-yl)nicotinamide inhibitors of PHD” (Takeda Pharmaceutical Company Limited, priority 2013, dated 2019)

Tests used:
[1] = biological target: PHD2 enzyme (residues 181-417) (Homo sapiens (Human), UniProt Q9GZT9); test: Inhibition of PHD enzyme (LC/MS peptide hydroxylation assay); format: biochemical; details: PHD2 (residues 181-417) 5 nM, 60 min pre-incubation, -log(IC50), IC50 molar
Protocol: Example A Inhibition of PHD Enzyme
The IC50 values for the PHD2 enzyme (residues 181-417) were determined by mixing increasing amounts of inhibitor with a fixed amount of enzyme (5 nM, final concentration) and Biotin labeled peptide (Biotin-Asp-Leu-Glu-Met-Leu-Ala-Pro-Tyr-Ile-Pro-Met-Asp-Asp-Asp-Phe-Gln-Leu, 1 uM final concentration) and 2-Oxyglutarate (2 uM final concentration) in 50 mM HEPES, 50 mM KCl, 0.5 mM TCEP, 2 uM FeCl2, 0.1 mg/ml BSA, at pH 7.3. The reaction was conducted by pre-incubating the enzyme in the presence of inhibitor for 60 min at room temperature. The activity of the free enzyme was measured by adding the peptide, the 2-Oxoglutarate (see above for final concentrations), and Ascorbic Acid (1 mM final concentration). The enzymatic activity was quenched after 60 min by adding an excess of a tight binding inhibitor to the assay mixture. The amount of product released was measured by using a LC/MS system (Agilent HPLC with Applied Biosystems API3000 Mass Spectrometer). Data were analyzed using the classical isotherm equation for the determination of IC50 values and are pIC50, i.e., −log(IC50), where IC50 is molar concentration and are reported as pIC50, i.e., −log(IC50), where IC50 is molar concentration.

[2] = system: HIF1a protein in H9c2 rat cardiomyocytes; test: Cell-based HIF-alpha stabilization assay (inhibition of PHD in cells); details: 24 hrs compound incubation, HIF1a protein by ELISA; for EC50: Rattus norvegicus, H9c2, 24 h, read-out: Inhibition of PHD in cells (pEC50) (converted)
Protocol: Example B Inhibition of PHD in Cells
PHD Inhibition is Determined Using (Secondary Assay)
Cell-Based HIF-Alpha Stabilization Assay:
H9c2 rat cardiomyocytes (ATCC) were seeded in 96-well tissue culture microplates and cultured for 24 hours prior to addition of compounds (11 point range of serial dilutions) or dimethylsulfoxide vehicle. After 24 hrs of compound incubation, whole cell extracts were prepared by lysing cells in cell extraction buffer containing protease and phosphatase inhibitors (Meso-Scale Discovery). HIF1a protein content was assessed by ELISA (Meso-Scale Discovery) and expressed as a % relative to the maximum response obtained from the positive control, desferrioxamine (Sigma-Aldrich). Compound EC50s were obtained by curve-fitting using XLfit4 MicroSoft Excel curve-fitting software. Compound EC50pos were obtained using XLfit4 to calculate the compound concentration that results in 50% of the desferrioxamine maximum response.

Sequence of PHD2 enzyme (residues 181-417) (Q9GZT9 181-417): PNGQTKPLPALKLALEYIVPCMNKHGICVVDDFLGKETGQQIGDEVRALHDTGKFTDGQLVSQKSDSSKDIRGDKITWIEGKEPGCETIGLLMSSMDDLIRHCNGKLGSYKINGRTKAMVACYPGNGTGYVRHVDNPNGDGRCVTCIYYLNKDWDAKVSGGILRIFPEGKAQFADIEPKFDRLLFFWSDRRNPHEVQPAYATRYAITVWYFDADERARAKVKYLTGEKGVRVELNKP

| SMILES | PHD Inhibition (pIC50) [1] | EC50 [2] | IC50 ([1]; read-out: PHD Inhibition (pIC50) (converted)) | Inhibition of PHD in cells (pEC50) [2] |
| --- | --- | --- | --- | --- |
| COCC(C)(C)NC(=O)c1ccc(-n2ncc(-c3ccnc(OC)c3)c2O)nc1 [Example 17, 6-(5-hydroxy-4-(2-methoxypyridin-4-yl)-1H-pyrazol-1-yl)-N-(1-methoxy-2-methylpropan-2-yl)nicotinamide] | 7.03 | 347 nM | – | – |
| CCCN1CCC(NC(=O)c2ccc(-n3ncc(-c4ccnc(OC)c4)c3O)nc2)CC1 [Example 24, 6-(5-hydroxy-4-(2-methoxypyridin-4-yl)-1H-pyrazol-1-yl)-N-(1-propylpiperidin-4-yl)nicotinamide] | 7.04 | 10700 nM | – | – |
| COc1cc(-c2cnn(-c3ccc(C(=O)NCCO)cn3)c2O)ccn1 [Example 25, 6-(5-hydroxy-4-(2-methoxypyridin-4-yl)-1H-pyrazol-1-yl)-N-(2-hydroxyethyl)nicotinamide] | 7.1 | 4470 nM | – | – |
| COc1cc(-c2cnn(-c3ccc(C(=O)NCCCO)cn3)c2O)ccn1 [Example 26, 6-(5-hydroxy-4-(2-methoxypyridin-4-yl)-1H-pyrazol-1-yl)-N-(3-hydroxypropyl)nicotinamide] | – | 3630 nM | 97.7 nM | – |
| COc1cc(-c2cnn(-c3ccc(C(=O)NCC4CCN(C)CC4)cn3)c2O)ccn1 [Example 30, 6-(5-hydroxy-4-(2-methoxypyridin-4-yl)-1H-pyrazol-1-yl)-N-((1-methylpiperidin-4-yl)methyl)nicotinamide] | 7.5 | 2000 nM | – | – |
| COc1cc(-c2cnn(-c3ccc(C(=O)NCCC4CCCN4C)cn3)c2O)ccn1 (stereo not drawn) [Example 31, 6-(5-hydroxy-4-(2-methoxypyridin-4-yl)-1H-pyrazol-1-yl)-N-(2-(1-methylpyrrolidin-2-yl)ethyl)nicotinamide] | 7.5 | – | – | 6.00 |
| COc1cc(-c2cnn(-c3ccc(C(=O)NCCCN4CCOCC4)cn3)c2O)ccn1 [Example 32, 6-(5-hydroxy-4-(2-methoxypyridin-4-yl)-1H-pyrazol-1-yl)-N-(3-morpholinopropyl)nicotinamide] | 7.8 | 813 nM | – | – |
| COc1cc(-c2cnn(-c3ccc(C(=O)NC4CCN(C)CC4)cn3)c2O)ccn1 [Example 33, 6-(5-hydroxy-4-(2-methoxypyridin-4-yl)-1H-pyrazol-1-yl)-N-(1-methylpiperidin-4-yl)nicotinamide] | 7.4 | 1170 nM | – | – |
| CCNC(=O)c1ccc(-n2ncc(-c3ccnc(OC)c3)c2O)nc1 [Example 34, N-ethyl-6-(5-hydroxy-4-(2-methoxypyridin-4-yl)-1H-pyrazol-1-yl)nicotinamide] | 8 | 513 nM | – | – |
| COc1cc(-c2cnn(-c3ccc(C(=O)NCCCn4ccnc4)cn3)c2O)ccn1 [Example 35, N-(3-(1H-imidazol-1-yl)propyl)-6-(5-hydroxy-4-(2-methoxypyridin-4-yl)-1H-pyrazol-1-yl)nicotinamide] | 7.8 | – | – | 5.50 |
| COc1cc(-c2cnn(-c3ccc(C(=O)NCC4CCN(C)C4)cn3)c2O)ccn1 (stereo not drawn) [Example 36, 6-(5-hydroxy-4-(2-methoxypyridin-4-yl)-1H-pyrazol-1-yl)-N-((1-methylpyrrolidin-3-yl)methyl)nicotinamide] | 7.4 | 1480 nM | – | – |
| COc1cc(-c2cnn(-c3ccc(C(=O)NCCCN4CCCCC4)cn3)c2O)ccn1 [Example 38, 6-(5-hydroxy-4-(2-methoxypyridin-4-yl)-1H-pyrazol-1-yl)-N-(3-(piperidin-1-yl)propyl)nicotinamide] | 7.5 | – | – | 6.02 |
| COc1cc(-c2cnn(-c3ccc(C(=O)NCCCN4CCCC4)cn3)c2O)ccn1 [Example 39, 6-(5-hydroxy-4-(2-methoxypyridin-4-yl)-1H-pyrazol-1-yl)-N-(3-(pyrrolidin-1-yl)propyl)nicotinamide] | 7.3 | – | – | 5.58 |
| CNC(=O)c1ccc(-n2ncc(-c3ccnc(OC)c3)c2O)nc1 [Example 40, 6-(5-hydroxy-4-(2-methoxypyridin-4-yl)-1H-pyrazol-1-yl)-N-methylnicotinamide] | 7.9 | 977 nM | – | – |
| COc1cc(-c2cnn(-c3ccc(C(=O)NC4CCN(C5CC5)CC4)cn3)c2O)ccn1 [Example 41, N-(1-cyclopropylpiperidin-4-yl)-6-(5-hydroxy-4-(2-methoxypyridin-4-yl)-1H-pyrazol-1-yl)nicotinamide] | 8 | 550 nM | – | – |
| CNCCCNC(=O)c1ccc(-n2ncc(-c3ccnc(OC)c3)c2O)nc1 [Example 42, 6-(5-hydroxy-4-(2-methoxypyridin-4-yl)-1H-pyrazol-1-yl)-N-(3-(methylamino)propyl)nicotinamide] | 7.5 | 3390 nM | – | – |
| COc1cc(-c2cnn(-c3ccc(C(=O)NCCCn4cccn4)cn3)c2O)ccn1 [Example 43, N-(3-(1H-pyrazol-1-yl)propyl)-6-(5-hydroxy-4-(2-methoxypyridin-4-yl)-1H-pyrazol-1-yl)nicotinamide] | 8.2 | 347 nM | – | – |
| COC[C@H]1CCC[C@H]1NC(=O)c1ccc(-n2ncc(-c3ccnc(OC)c3)c2O)nc1 [Example 45, 6-(5-hydroxy-4-(2-methoxypyridin-4-yl)-1H-pyrazol-1-yl)-N-((1R,2S)-2-(methoxymethyl)cyclopentyl)nicotinamide] | 8 | 562 nM | – | – |
| COc1cc(-c2cnn(-c3ccc(C(=O)NCC4CN(C)CCO4)cn3)c2O)ccn1 (stereo not drawn) [Example 46, 6-(5-hydroxy-4-(2-methoxypyridin-4-yl)-1H-pyrazol-1-yl)-N-((4-methylmorpholin-2-yl)methyl)nicotinamide] | 7.8 | 1350 nM | – | – |
| COCC1(CNC(=O)c2ccc(-n3ncc(-c4ccnc(OC)c4)c3O)nc2)CCCC1 [Example 47, 6-(5-hydroxy-4-(2-methoxypyridin-4-yl)-1H-pyrazol-1-yl)-N-((1-(methoxymethyl)cyclopentyl)methyl)nicotinamide] | 8.4 | 355 nM | – | – |
| COc1cc(-c2cnn(-c3ccc(C(=O)NCC4CCCCO4)cn3)c2O)ccn1 (stereo not drawn) [Example 48, 6-(5-hydroxy-4-(2-methoxypyridin-4-yl)-1H-pyrazol-1-yl)-N-((tetrahydro-2H-pyran-2-yl)methyl)nicotinamide] | 8 | 646 nM | – | – |
| COCC(C)CNC(=O)c1ccc(-n2ncc(-c3ccnc(OC)c3)c2O)nc1 (stereo not drawn) [Example 49, 6-(5-hydroxy-4-(2-methoxypyridin-4-yl)-1H-pyrazol-1-yl)-N-(3-methoxy-2-methylpropyl)nicotinamide] | 7.9 | 871 nM | – | – |
| COc1cc(-c2cnn(-c3ccc(C(=O)NCCC(C)OC)cn3)c2O)ccn1 (stereo not drawn) [Example 50, 6-(5-hydroxy-4-(2-methoxypyridin-4-yl)-1H-pyrazol-1-yl)-N-(3-methoxybutyl)nicotinamide] | 8.1 | 871 nM | – | – |
| COc1cc(-c2cnn(-c3ccc(C(=O)NC(C)(C)CN(C)C)cn3)c2O)ccn1 [Example 51, N-(1-(dimethylamino)-2-methylpropan-2-yl)-6-(5-hydroxy-4-(2-methoxypyridin-4-yl)-1H-pyrazol-1-yl)nicotinamide] | 7.3 | 1820 nM | – | – |
| COc1cc(-c2cnn(-c3ccc(C(=O)N[C@H]4CC[C@@H](C)CC4)cn3)c2O)ccn1 [Example 52, 6-(5-hydroxy-4-(2-methoxypyridin-4-yl)-1H-pyrazol-1-yl)-N-((1s,4s)-4-methylcyclohexyl)nicotinamide] | 8.3 | 933 nM | – | – |
| N#Cc1ccc(-c2cnn(-c3ccc(C(=O)NCCC4CC4)cn3)c2O)cc1 [Example 53, 6-(4-(4-cyanophenyl)-5-hydroxy-1H-pyrazol-1-yl)-N-(2-cyclopropylethyl)nicotinamide] | 7.03 | 525 nM | – | – |
| CC1(C)CC1NC(=O)c1ccc(-n2ncc(-c3ccc(C#N)cc3)c2O)nc1 (stereo not drawn) [Example 54, 6-(4-(4-cyanophenyl)-5-hydroxy-1H-pyrazol-1-yl)-N-(2,2-dimethylcyclopropyl)nicotinamide] | 7.22 | 331 nM | – | – |
